ChEMBL document CHEMBL5360610, “N-Alkyl Carbamoylimidazoles as Versatile Synthons for the Synthesis of Urea-Based PSMA Inhibitors” (ACS Med Chem Lett, 2023)
Activity calls are given as the source filed them. The rule behind the calls is not given here.

Columns and labels:
[1] = biological target: T1, Glutamate carboxypeptidase 2 (Homo sapiens, UniProt Q04609); assay: Displacement of [18F]PSMA-1007 from human PSMA expressed in human LNCaP cells by competitive binding assay; format: cell-based
Target sequence in this assay (Q04609 whole entry): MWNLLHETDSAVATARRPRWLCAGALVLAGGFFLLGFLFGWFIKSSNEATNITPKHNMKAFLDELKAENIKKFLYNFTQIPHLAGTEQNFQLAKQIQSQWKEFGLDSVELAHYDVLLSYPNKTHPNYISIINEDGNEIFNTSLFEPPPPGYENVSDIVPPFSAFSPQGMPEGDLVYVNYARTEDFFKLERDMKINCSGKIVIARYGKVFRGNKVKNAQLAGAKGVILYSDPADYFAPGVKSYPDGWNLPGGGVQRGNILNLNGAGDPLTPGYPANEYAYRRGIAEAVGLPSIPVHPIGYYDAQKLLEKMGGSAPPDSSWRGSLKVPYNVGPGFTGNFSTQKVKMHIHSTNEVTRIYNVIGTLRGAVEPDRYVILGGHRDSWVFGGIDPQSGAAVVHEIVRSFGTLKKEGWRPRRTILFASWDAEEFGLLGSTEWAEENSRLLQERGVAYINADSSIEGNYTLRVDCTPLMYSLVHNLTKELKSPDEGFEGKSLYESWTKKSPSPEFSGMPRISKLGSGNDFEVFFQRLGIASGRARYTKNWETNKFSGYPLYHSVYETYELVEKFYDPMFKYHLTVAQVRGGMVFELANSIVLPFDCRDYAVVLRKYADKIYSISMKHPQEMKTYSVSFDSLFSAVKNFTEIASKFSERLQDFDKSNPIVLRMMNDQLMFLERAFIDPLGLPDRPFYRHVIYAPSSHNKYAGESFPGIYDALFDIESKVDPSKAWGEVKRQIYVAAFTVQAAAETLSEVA

[2] = biological target: T1, Glutamate carboxypeptidase 2; assay: Displacement of [18F]PSMA-1007 from human PSMA expressed in human LNCaP cells at 0.1 to 100000 nM by competitive binding assay; format: cell-based; conditions: dose 0.1-100000 nM
Target sequence in this assay (Q04609 whole entry, looked up): as the sequence (Q04609 whole entry) above

SMILES | IC50 [1] | inhibition [2]
O=C(O)CC[C@H](NC(=O)N[C@@H](CCCC(=O)NCc1ccc(F)cc1)C(=O)O)C(=O)O | 1500 nM | 
O=C(O)CC[C@H](NC(=O)N[C@@H](CCCC(=O)Nc1ccc(F)nc1)C(=O)O)C(=O)O | 90 nM | 
O=C(Nc1scc(C(=O)O)c1C(=O)O)N[C@@H](CCCCNC(=O)c1cccc(F)n1)C(=O)O |  | inactive
O=C(O)CC[C@H](NC(=O)N[C@@H](CCCCNC(=O)[C@H](Cc1ccc2ccccc2c1)NC(=O)[C@H]1CC[C@H](CNC(=O)[C@H](CCC(=O)O)NC(=O)[C@H](CCC(=O)O)NC(=O)c2ccc(F)nc2)CC1)C(=O)O)C(=O)O | 4 nM | 
O=C(O)CC[C@H](CC(=O)N[C@@H](CCCCNC(=O)[C@H](Cc1ccccc1)NC(=O)COc1ccc(C[C@H](NC(=O)CCC(=O)CO/N=C/c2ccc(F)cc2)C(=O)O)cc1)C(=O)O)C(=O)O | 13 nM | 
O=C(Nc1scc(C(=O)O)c1C(=O)O)N[C@@H](CCCCNC(=O)c1ccc(F)cc1)C(=O)O |  | inactive
